The source made the active and inactive calls. The rule behind the calls is not given here.
Legend:
[1] = biological target: Purinergic P2Y (Rattus norvegicus) (UniProt O35811+Q9EPX4+P49651+Q63371+P41232+O35881+Q6GUG4); conditions: Compound concentration 10.0 uM
[2] = biological target: T1, Proteinase-activated receptor 1 (Homo sapiens, UniProt P25116); assay: Binding assay (platelet membranes)
T1 sequence (P25116 whole entry): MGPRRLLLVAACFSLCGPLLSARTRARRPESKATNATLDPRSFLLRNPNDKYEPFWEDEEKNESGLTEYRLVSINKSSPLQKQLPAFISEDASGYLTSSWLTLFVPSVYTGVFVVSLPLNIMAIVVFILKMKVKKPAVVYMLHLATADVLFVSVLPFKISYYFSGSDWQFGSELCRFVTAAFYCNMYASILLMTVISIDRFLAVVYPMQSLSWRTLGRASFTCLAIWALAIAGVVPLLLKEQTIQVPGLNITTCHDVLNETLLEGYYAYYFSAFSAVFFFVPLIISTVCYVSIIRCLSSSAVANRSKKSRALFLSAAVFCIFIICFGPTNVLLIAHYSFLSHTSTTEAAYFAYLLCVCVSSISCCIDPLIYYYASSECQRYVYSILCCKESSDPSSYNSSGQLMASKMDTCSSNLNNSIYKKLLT

[3] = biological target: T2, Alpha-1A adrenergic receptor (Homo sapiens) (UniProt P35348); conditions: Rattus norvegicus; Compound concentration 10.0 uM
T2 sequence (whole entry): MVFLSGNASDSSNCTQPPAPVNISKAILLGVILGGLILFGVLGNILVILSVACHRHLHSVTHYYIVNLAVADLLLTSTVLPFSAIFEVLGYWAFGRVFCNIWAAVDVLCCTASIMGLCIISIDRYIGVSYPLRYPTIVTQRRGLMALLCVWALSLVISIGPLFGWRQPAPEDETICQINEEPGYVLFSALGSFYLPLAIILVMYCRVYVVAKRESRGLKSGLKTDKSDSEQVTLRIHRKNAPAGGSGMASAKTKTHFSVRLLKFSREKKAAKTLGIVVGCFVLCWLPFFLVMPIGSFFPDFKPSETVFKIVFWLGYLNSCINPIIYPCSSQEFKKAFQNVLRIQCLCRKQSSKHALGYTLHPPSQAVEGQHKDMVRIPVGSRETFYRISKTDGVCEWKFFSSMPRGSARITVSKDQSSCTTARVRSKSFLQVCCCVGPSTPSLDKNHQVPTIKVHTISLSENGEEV

Platelet [4] = assay: Inhibition of platelet aggregation (human plasma, TRAP-6) (IC50); format: cell-based
[5] = biological target: Estrogen receptor (Homo sapiens) (UniProt P03372); conditions: Compound concentration 10.0 uM
[6] = biological target: T3, Glutamate NMDA receptor (Rattus norvegicus) (UniProt P35439+Q00959+Q00960+Q00961+Q62645+Q8VHN2+Q9R1M7); conditions: Compound concentration 10.0 uM
[7] = biological target: Sigma intracellular receptor 2 (Homo sapiens, UniProt Q5BJF2); assay: GPCRScan assay: inhibition of Sigma 2; set-up: radioligand conc. used [nm] 5.0, parental cells HEKT
[8] = biological target: Sigma non-opioid intracellular receptor 1 (Homo sapiens) (UniProt Q99720); assay: Sigma 1 Eurofins-Panlabs radioligand binding assay; set-up: ligand concentration 8 nM; conditions: Compound concentration 10.0 uM
[9] = biological target: B1 bradykinin receptor (Homo sapiens) (UniProt P46663); assay: Inhibition of Bradykinin B1 at 10 µM in the Eurofins-Panlabs radioligand binding assay (Eurofins_assay_212510); conditions: Compound concentration 10.0 uM
Platelet [10] = assay: Inhibition of platelet aggregation (human plasma, TRAP-6) (IC90)
[11] = biological target: Histamine H2 receptor (Homo sapiens) (UniProt P25021); conditions: Compound concentration 10.0 uM
[12] = biological target: D(3) dopamine receptor (Homo sapiens) (UniProt P35462); conditions: Compound concentration 10.0 uM
[13] = biological target: Sodium-dependent noradrenaline transporter (Homo sapiens) (UniProt P23975); conditions: Compound concentration 10.0 uM
[14] = biological target: Acetylcholine receptor subunit alpha (Homo sapiens) (UniProt P02708); assay: Inhibition of Nicotinic Acetylcholine […], Bungarotoxin at 10 µM in the Eurofins-Panlabs radioligand binding assay (Eurofins_assay_258700); conditions: Compound concentration 10.0 uM
Rattus norvegicus = organism: Rattus norvegicus; conditions: Compound concentration 10.0 uM
[15] = biological target: Sigma non-opioid intracellular receptor 1 (Homo sapiens) (UniProt Q99720); conditions: Compound concentration 10.0 uM
[16] = biological target: Neuropeptide Y receptor type 2 (Homo sapiens) (UniProt P49146); assay: Inhibition of Neuropeptide Y Y2 at 10 µM in the Eurofins-Panlabs radioligand binding assay (Eurofins_assay_257110); conditions: Compound concentration 10.0 uM
[17] = biological target: D(2) dopamine receptor (Homo sapiens) (UniProt P14416); conditions: Compound concentration 10.0 uM
Platelet [18] = assay: Inhibition of platelet aggregation (human plasma, thrombin); format: cell-based
[19] = biological target: Histamine H3 receptor (Homo sapiens) (UniProt Q9Y5N1); assay: Histamine H3 Eurofins-Panlabs radioligand binding assay; conditions: Compound concentration 10.0 uM
[20] = biological target: Prostaglandin E2 receptor EP4 subtype (Homo sapiens) (UniProt P35408); assay: Inhibition of Prostanoid EP4 at 10 µM in the Eurofins-Panlabs radioligand binding assay (Eurofins_assay_268420); set-up: ligand concentration 1 nM; conditions: Compound concentration 10.0 uM
[21] = biological target: voltage-gated sodium channel, site 2 (Rattus norvegicus, UniProt F1LQQ7+O08562+O88420+O88457+P04774+P04775+P08104+P15389+P15390+Q62968); assay: Inhibition of Sodium Channel, Site 2 at 10 µM in the Eurofins-Panlabs radioligand binding assay (Eurofins_assay_279510); format: protein assay; set-up: ligand concentration 5 nM, non-specific ligand with concentration 100 µM Veratridine, incubation time 60 min, incubation temperature 37 °C; conditions: male, Wistar, rat whole brain (except cerebellum) membranes, probe [3H] Batrachotoxinin, compound concentration 10 uM
[22] = biological target: Cannabinoid receptor 1 (Homo sapiens) (UniProt P21554); conditions: Compound concentration 10.0 uM
[23] = biological target: Sigma non-opioid intracellular receptor 1 (Homo sapiens) (UniProt Q99720); assay: Inhibition of Sigma 1 at 10 µM in the Eurofins-Panlabs radioligand binding assay (Eurofins_assay_278110); set-up: ligand concentration 8 nM; conditions: Compound concentration 10.0 uM
[24] = biological target: Adenosine receptor A1 (Homo sapiens) (UniProt P30542); conditions: Compound concentration 10.0 uM
[25] = biological target: T3, Glutamate NMDA receptor (Rattus norvegicus); conditions: Compound concentration 10.0 uM; remark: listed apart in the source
[26] = biological target: 5-hydroxytryptamine receptor 1E (Homo sapiens) (UniProt P28566); conditions: Compound concentration 10.0 uM
[27] = biological target: Beta-1 adrenergic receptor (Homo sapiens) (UniProt P08588); conditions: Compound concentration 10.0 uM
[28] = biological target: Kappa-type opioid receptor (Homo sapiens) (UniProt P41145); assay: kappa (KOP) (h) Eurofins-Cerep Cellular and Nuclear Receptor Functional Assays; conditions: Compound concentration 10.0 uM
[29] = biological target: Mu-type opioid receptor (Homo sapiens) (UniProt P35372); assay: mu (MOP) (h) Eurofins-Cerep Cellular and Nuclear Receptor Functional Assays; conditions: Compound concentration 10.0 uM
Chain of Mu-type opioid receptor (Homo sapiens) (P35372 whole entry): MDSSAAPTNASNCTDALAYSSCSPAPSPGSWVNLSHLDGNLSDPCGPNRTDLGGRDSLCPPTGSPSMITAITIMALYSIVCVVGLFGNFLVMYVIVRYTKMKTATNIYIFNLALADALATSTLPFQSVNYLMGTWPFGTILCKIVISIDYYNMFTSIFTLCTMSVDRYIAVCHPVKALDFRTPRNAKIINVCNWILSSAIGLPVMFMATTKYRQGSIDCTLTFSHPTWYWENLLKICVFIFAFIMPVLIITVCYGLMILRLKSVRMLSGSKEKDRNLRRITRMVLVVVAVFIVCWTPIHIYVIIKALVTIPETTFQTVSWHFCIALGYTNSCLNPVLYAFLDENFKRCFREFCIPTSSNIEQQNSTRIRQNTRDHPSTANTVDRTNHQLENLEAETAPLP

Chain of Sigma non-opioid intracellular receptor 1 (Homo sapiens) (Q99720 whole entry): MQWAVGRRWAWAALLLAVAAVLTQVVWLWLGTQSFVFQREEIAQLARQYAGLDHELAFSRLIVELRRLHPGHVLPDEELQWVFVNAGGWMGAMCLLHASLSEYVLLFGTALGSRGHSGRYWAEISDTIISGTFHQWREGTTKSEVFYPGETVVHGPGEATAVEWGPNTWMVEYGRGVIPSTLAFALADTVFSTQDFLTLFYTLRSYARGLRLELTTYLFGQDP
Chain of Sigma intracellular receptor 2 (Q5BJF2 whole entry): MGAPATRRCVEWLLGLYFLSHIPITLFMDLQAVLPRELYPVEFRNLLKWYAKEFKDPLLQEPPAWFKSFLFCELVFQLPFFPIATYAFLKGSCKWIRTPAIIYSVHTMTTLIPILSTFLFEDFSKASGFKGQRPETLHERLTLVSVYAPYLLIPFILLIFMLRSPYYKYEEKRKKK
Chain of Kappa-type opioid receptor (Homo sapiens) (P41145 whole entry): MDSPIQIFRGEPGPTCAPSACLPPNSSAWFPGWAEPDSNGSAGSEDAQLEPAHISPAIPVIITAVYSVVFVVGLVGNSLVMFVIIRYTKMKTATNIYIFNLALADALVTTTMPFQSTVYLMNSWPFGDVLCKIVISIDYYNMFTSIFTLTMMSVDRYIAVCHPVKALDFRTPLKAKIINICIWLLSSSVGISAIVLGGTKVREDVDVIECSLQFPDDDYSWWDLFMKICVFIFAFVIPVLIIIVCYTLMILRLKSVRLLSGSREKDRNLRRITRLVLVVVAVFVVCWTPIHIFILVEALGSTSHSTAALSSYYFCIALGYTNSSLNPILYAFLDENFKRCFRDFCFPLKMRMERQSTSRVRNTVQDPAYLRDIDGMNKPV
Chain of D(3) dopamine receptor (Homo sapiens) (P35462 whole entry): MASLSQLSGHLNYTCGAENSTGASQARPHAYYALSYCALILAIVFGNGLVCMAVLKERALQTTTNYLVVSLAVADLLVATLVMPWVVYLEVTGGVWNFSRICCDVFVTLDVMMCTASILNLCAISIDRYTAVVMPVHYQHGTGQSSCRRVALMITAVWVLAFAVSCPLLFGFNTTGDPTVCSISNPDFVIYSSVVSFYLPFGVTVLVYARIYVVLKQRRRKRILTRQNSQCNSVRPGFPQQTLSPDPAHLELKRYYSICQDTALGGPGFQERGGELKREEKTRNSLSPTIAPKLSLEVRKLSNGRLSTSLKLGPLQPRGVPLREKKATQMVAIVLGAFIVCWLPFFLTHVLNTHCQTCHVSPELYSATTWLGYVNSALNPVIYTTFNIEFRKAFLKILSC
Chain of B1 bradykinin receptor (Homo sapiens) (P46663 whole entry): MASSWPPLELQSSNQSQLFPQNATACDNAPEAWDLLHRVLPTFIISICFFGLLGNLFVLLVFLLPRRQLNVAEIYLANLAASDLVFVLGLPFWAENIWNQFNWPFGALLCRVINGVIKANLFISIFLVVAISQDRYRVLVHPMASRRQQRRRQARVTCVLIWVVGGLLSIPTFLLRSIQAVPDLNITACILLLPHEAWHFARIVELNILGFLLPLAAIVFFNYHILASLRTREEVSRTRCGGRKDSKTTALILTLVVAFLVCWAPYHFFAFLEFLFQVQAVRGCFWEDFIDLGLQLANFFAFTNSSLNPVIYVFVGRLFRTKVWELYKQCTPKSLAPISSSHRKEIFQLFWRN
Chain of Sodium-dependent noradrenaline transporter (Homo sapiens) (P23975 whole entry): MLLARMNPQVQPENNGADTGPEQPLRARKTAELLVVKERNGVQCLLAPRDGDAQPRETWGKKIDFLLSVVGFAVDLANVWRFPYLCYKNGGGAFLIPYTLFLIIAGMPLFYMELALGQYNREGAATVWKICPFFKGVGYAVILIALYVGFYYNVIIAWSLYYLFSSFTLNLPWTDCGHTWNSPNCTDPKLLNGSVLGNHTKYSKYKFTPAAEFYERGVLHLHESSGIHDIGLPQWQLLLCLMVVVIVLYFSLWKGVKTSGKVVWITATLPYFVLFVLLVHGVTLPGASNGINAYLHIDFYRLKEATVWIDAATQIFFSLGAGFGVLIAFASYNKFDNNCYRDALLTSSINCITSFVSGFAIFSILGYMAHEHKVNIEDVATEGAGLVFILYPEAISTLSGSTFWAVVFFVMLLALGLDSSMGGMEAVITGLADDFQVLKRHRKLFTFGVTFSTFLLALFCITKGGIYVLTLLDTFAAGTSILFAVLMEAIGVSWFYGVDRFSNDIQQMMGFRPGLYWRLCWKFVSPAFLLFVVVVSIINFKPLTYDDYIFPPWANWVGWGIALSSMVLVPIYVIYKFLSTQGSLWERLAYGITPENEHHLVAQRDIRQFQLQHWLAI
Chain of Acetylcholine receptor subunit alpha (Homo sapiens) (P02708 whole entry): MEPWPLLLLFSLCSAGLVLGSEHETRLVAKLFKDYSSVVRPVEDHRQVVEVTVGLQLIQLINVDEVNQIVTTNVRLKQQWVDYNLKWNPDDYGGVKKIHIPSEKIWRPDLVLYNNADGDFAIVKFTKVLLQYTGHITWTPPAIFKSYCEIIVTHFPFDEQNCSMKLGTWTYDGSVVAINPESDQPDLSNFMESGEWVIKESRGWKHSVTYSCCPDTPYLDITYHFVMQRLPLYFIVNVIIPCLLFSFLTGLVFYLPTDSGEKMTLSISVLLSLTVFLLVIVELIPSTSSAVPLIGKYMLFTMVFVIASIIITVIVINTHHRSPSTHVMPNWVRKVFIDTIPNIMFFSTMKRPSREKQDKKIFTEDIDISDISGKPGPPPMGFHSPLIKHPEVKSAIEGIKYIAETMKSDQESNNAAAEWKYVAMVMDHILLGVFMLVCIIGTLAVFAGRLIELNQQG
Chain of Beta-1 adrenergic receptor (Homo sapiens) (P08588 whole entry, looked up): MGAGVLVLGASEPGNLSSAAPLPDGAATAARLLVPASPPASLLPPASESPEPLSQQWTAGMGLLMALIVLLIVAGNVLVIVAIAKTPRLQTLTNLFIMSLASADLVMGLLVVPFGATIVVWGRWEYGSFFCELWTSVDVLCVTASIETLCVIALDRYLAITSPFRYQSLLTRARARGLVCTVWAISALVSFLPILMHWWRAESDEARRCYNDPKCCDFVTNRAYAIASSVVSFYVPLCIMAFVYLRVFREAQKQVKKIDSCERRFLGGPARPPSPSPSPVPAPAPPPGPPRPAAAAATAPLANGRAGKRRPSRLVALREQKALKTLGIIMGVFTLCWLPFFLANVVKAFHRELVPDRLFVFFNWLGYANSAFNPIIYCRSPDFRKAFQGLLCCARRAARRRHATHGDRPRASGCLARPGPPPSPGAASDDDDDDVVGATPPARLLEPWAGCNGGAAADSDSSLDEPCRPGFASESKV
Chain of Neuropeptide Y receptor type 2 (Homo sapiens) (P49146 whole entry): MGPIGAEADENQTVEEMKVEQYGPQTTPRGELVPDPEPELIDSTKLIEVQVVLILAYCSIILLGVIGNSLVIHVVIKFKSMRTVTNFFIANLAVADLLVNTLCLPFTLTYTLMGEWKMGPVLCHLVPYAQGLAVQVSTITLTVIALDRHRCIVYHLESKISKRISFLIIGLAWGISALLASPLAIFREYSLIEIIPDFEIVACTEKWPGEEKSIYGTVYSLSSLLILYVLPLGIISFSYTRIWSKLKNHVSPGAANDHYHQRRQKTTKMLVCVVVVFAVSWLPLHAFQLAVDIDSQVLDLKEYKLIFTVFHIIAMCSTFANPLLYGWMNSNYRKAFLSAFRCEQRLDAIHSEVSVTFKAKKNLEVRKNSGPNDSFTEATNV
Chain of Histamine H2 receptor (Homo sapiens) (P25021 whole entry): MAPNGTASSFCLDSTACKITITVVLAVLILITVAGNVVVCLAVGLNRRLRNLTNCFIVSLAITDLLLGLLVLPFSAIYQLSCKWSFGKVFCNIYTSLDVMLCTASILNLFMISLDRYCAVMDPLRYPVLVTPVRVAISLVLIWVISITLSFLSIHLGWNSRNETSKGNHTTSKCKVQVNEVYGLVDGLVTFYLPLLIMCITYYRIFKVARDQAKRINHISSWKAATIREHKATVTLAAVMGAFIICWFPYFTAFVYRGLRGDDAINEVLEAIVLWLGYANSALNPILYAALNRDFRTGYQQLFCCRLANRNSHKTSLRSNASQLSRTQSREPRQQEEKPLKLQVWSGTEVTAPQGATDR
Chain of Estrogen receptor (Homo sapiens) (P03372 whole entry): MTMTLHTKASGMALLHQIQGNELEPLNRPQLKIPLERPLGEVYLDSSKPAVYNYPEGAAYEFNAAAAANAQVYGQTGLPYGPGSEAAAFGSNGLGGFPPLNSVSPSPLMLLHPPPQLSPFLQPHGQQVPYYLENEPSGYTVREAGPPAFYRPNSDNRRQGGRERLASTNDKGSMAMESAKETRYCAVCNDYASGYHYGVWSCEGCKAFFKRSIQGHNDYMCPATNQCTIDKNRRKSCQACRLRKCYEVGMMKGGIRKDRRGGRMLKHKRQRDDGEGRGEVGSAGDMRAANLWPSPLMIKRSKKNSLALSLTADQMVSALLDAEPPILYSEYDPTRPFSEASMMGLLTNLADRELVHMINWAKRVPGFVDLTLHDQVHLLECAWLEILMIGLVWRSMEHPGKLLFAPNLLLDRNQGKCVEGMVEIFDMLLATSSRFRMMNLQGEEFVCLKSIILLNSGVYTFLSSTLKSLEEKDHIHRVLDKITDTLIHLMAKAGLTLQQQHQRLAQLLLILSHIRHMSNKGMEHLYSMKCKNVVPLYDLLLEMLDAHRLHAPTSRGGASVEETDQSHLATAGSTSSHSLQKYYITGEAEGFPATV

Q: For `O=C(N1CCS(=O)(=O)CC1)N1C[C@H](c2ccc(OC(F)(F)F)cc2)C[C@H](c2nc(C3CC3)no2)C1` [BAY-386], which inhibition [1] is on record?
A: 12%

Q: What about the IC50 [2] of the same molecule?
A: 56 nM (active)

Q: What about the inhibition [3] of the same molecule?
A: 1%

Q: And the IC50 (Platelet [4])?
A: 430 nM

Q: And the inhibition [5]?
A: -1%

Q: What about the inhibition [6] of the same molecule?
A: 12%

Q: What about the Ki ([7]; read-out: Ki) of the same molecule?
A: 1200 nM

Q: What about the Ki ([7]; read-out: pKi (converted)) of the same molecule?
A: 1150 nM

Q: What about the inhibition [8] of the same molecule?
A: 12%

Q: What about the inhibition [9] of the same molecule?
A: 6%

Q: What about the IC90 (Platelet [10]) of the same molecule?
A: 680 nM

Q: What about the inhibition [11] of the same molecule?
A: 9.25%

Q: What about the inhibition [12] of the same molecule?
A: -1%

Q: And the inhibition [13]?
A: -1.24%

Q: And the inhibition [14]?
A: -2%

Q: What about the inhibition (Rattus norvegicus) of the same molecule?
A: 14%

Q: What about the inhibition [15] of the same molecule?
A: 40.3%

Q: What about the inhibition [16] of the same molecule?
A: 2%

Q: And the inhibition [17]?
A: 1%

Q: What about the IC50 (Platelet [18]) of the same molecule?
A: 140 nM

Q: What about the inhibition [19] of the same molecule?
A: -3%

Q: What about the inhibition [20] of the same molecule?
A: 1%

Q: And the inhibition at 60 min, 10 µM [21]?
A: 55%

Q: And the inhibition [22]?
A: 88%

Q: And the inhibition [23]?
A: 16%

Q: And the inhibition [24]?
A: -6%

Q: And the inhibition [25]?
A: -2%

Q: Which inhibition [26] does the source give for `Cc1noc([C@H]2C[C@@H](c3ccc(C(F)(F)F)cc3)CN(C(=O)N3CCS(=O)(=O)C3)C2)n1` [BAY-448] here?
A: 21.5%

Q: What about the inhibition [27] of the same molecule?
A: 3.66%

Q: And the % Inhibition of Control Agonist Response (Mean n=2) [28]?
A: 1.3%

Q: And the % of Control Agonist Response (Mean n=2) [28]?
A: 9%

Q: And the % Inhibition of Control Agonist Response (Mean n=2) [29]?
A: -4.8%

Q: And the % of Control Agonist Response (Mean n=2) [29]?
A: 36%
